The results in this text go back to patent US11292796B2 (SIGNAL PHARMACEUTICALS, LLC, priority 2008, dated 2022).

A word on the IC50: it is the concentration that gives 50% inhibition.

In this assay the target is T1, mTOR (Homo sapiens, UniProt P42345).
T1 construct: purchased Invitrogen PR8683A
Description: mTOR HTR-FRET assay. It counts as biochemical. Particulars: read-out: Act. Level (IC50 in mTor HTR-FRET assay). The procedure:
The following is an example of an assay that can be used to determine the mTOR inhibitory activity of a test compound. Heteroaryl Compounds were dissolved in DMSO and prepared as 10 mM stocks and diluted appropriately for the experiments. Reagents were prepared as follows:
“Simple TOR buffer” (used to dilute high glycerol TOR fraction): 10 mM Tris pH 7.4, 100 mM NaCl, 0.1% Tween-20, 1 mM DTT. Invitrogen mTOR (cat #PR8683A) was diluted in this buffer to an assay concentration of 0.200 μg/mL.
To 20 μL of the Simple mTor buffer is added 0.5 μL of test compound in DMSO. To initiate the reaction 5 μL of ATP/Substrate solution was added to 20 μL of the Simple TOR buffer solution (control) and to the compound solution prepared above.

T1 sequence (P42345 1360-2549 limits assumed): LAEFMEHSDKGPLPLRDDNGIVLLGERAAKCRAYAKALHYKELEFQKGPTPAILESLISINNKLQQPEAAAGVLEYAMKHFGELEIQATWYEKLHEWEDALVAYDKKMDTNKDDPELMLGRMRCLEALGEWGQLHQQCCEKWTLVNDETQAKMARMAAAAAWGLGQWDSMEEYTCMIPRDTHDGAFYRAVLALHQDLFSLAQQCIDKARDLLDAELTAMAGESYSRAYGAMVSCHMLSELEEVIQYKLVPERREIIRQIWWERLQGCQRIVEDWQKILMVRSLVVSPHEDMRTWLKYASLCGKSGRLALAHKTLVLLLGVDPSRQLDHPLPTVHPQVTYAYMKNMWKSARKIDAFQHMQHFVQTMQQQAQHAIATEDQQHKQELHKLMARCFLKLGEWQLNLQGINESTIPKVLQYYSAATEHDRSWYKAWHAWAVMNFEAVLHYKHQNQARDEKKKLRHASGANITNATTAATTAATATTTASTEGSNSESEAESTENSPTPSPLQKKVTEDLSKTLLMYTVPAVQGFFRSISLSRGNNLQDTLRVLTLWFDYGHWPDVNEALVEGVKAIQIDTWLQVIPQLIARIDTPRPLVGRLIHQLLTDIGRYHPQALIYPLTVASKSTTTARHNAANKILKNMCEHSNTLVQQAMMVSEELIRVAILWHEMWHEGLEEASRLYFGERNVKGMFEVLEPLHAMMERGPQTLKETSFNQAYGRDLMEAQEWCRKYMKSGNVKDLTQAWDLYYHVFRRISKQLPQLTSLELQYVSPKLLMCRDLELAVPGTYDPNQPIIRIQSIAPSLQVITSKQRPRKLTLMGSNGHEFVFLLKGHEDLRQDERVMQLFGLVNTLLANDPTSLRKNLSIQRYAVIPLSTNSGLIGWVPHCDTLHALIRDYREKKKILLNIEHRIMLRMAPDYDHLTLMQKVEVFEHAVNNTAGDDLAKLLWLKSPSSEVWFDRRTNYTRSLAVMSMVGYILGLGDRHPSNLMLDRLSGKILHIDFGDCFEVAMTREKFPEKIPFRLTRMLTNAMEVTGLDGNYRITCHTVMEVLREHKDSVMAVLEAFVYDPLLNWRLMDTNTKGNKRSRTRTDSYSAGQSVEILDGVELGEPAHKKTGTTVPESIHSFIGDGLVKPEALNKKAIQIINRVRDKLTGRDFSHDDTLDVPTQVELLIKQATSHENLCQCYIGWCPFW

With `Cc1nc(C(C)(C)O)ccc1-c1cnc2c(n1)N(CC1CCOCC1)CC(=O)N2` [Example 81, 6-(6-(2-hydroxypropan-2-yl)-2-methylpyridin-3-yl)-4-((tetrahydro-2H-pyran-4-yl)methyl)-3,4-dihydropyrazino[2,3-b]pyrazin-2(1H)-one], the concentration for half-maximal inhibition (IC50) is 0.005 to 250 nM.

As for `CO[C@H]1CC[C@H](N2CC(=O)Nc3ncc(-c4ccc(C(C)(C)O)nc4C)nc32)CC1` [Example 82, 6-(6-(2-hydroxypropan-2-yl)-2-methylpyridin-3-yl)-4-(trans-4-methoxycyclohexyl)-3,4-dihydropyrazino[2,3-b]pyrazin-2(1H)-one], the IC50 was in the range of 250 to 500 nM.

With `C[C@H](O)c1ccc(-c2cnc3c(n2)N(CCC2CCOCC2)CC(=O)N3)cn1` [Example 83, (S)-6-(6-(1-hydroxyethyl)pyridin-3-yl)-4-(2-(tetrahydro-2H-pyran-4-yl)ethyl)-3,4-dihydropyrazino[2,3-b]pyrazin-2(1H)-one], the IC50 was 250 to 500 nM.

With `Cc1cc(-c2nnc[nH]2)ccc1-c1cnc2c(n1)N(CCC1CCOCC1)C(C)(C)C(=O)N2` [Example 84, 3,3-dimethyl-6-(2-methyl-4-(4H-1,2,4-triazol-3-yl)phenyl)-4-(2-(tetrahydro-2H-pyran-4-yl)ethyl)-3,4-dihydropyrazino[2,3-b]pyrazin-2(1H)-one], the IC50 fell in the range of 0.005 to 250 nM.

Turning to `CC(C)(O)c1ccc(-c2cnc3c(n2)N(CCC2CCOCC2)C(C)(C)C(=O)N3)cn1` [Example 85, 6-(6-(2-hydroxypropan-2-yl)pyridin-3-yl)-3,3-dimethyl-4-(2-(tetrahydro-2H-pyran-4-yl)ethyl)-3,4-dihydropyrazino[2,3-b]pyrazin-2(1H)-one], the 50% inhibitory concentration (IC50) was in the range of 500 to 1000 nM.

On to `CO[C@H]1CC[C@H](N2CC(=O)Nc3ncc(-c4ccc(C(C)(C)O)cc4)nc32)CC1` [Example 86, 6-(4-(2-hydroxypropan-2-yl)phenyl)-4-(trans-4-methoxycyclohexyl)-3,4-dihydropyrazino[2,3-b]pyrazin-2(1H)-one], for which the IC50 was in the range of 0.005 to 250 nM.

With `CO[C@H]1CC[C@H](CN2CC(=O)Nc3ncc(-c4ccc(C(C)(C)O)cc4)nc32)CC1` [Example 87, 6-(4-(2-hydroxypropan-2-yl)phenyl)-4-((trans-4-methoxycyclohexyl)methyl)-3,4-dihydropyrazino[2,3-b]pyrazin-2(1H)-one], the concentration for half-maximal inhibition (IC50) was 250 to 500 nM.

As for `CC(C)(O)c1ccc(-c2cnc3c(n2)N(CC2CCOCC2)CC(=O)N3)cc1` [Example 90, 6-(4-(2-hydroxypropan-2-yl)phenyl)-4-((tetrahydro-2H-pyran-4-yl)methyl)-3,4-dihydropyrazino[2,3-b]pyrazin-2(1H)-one], the IC50 fell in the range of 0.005 to 250 nM.

On to `O=C1Nc2ncc(-c3ccc(-c4nnc[nH]4)nc3)nc2N2CCOCC12` (stereo not drawn) [Example 92, 9-(6-(4H-1,2,4-triazol-3-yl)-3-pyridyl)-6,11,4a-trihydromorpholino[4,3-e]pyrazino[2,3-b]pyrazin-5-one], for which the IC50 fell in the range of 500 to 1000 nM.

In the case of `Cc1nc(-c2nnc[nH]2)ccc1-c1cnc2c(n1)N(CC1CCOCC1)CC(=O)N2` [Example 93, 6-(2-methyl-6-(4H-1,2,4-triazol-3-yl)pyridin-3-yl)-4-((tetrahydro-2H-pyran-4-yl)methyl)-3,4-dihydropyrazino[2,3-b]pyrazin-2(1H)-one], the IC50 lay in the range of 250 to 500 nM.

Turning to `CO[C@H]1CC[C@@H](N2CC(=O)Nc3ncc(-c4ccc(C#N)nc4C)nc32)CC1` [Example 94, 5-(8-(cis-4-methoxycyclohexyl)-6-oxo-5,6,7,8-tetrahydropyrazino[2,3-b]pyrazin-2-yl)-6-methylpicolinonitrile], the IC50 was in the range of 1000 to 10000 nM.

Turning to `COCC(=O)N1CCN2c3nc(-c4ccc(-c5nnc[nH]5)cc4C)cnc3NC(=O)C2C1` (stereo not drawn) [Example 96, 9-(4-(4H-1,2,4-triazol-3-yl)-2-methylphenyl)-3-(2-methoxyacetyl)-6,11,4a-trihydropiperazino[1,2-e]pyrazino[2,3-b]pyrazin-5-one], the IC50 was in the range of 0.005 to 250 nM.
